Results from patent US5747544A, “Method of using pure 3R-3'R stereoisomer of zeaxanthin to treat or prevent retinal degeneration in humans” (priority 1995, dated 1998).

Columns and labels:
[1] = system: retina; details: in vivo; cited from earlier work
[2] = system: macular degeneration; details: general anti-oxidants; cited from earlier work
[3] = system: chickens; details: cited from earlier work
[4] = physchem; details: dry powder
From the text: After roughly six months of storage in a relatively unprotected state (usually under normal refrigeration with moderately frequent removal; without containing any antioxidants, and without taking any precautions to prevent contact by atmospheric oxygen), a sample of the zeaxanthin preparation was sent for stereoisomeric analysis to Prof.

[5] = system: animals such as birds or fish; assay: Feeding of F. multivorum cell paste to animals such as birds or fish; type: in vivo; details: oral, cell paste of F. multivorum cells
From the text: Although this option has not yet been fully evaluated, it is possible that the Flavobacterium multivorum cells themselves, in intact form and possibly even in a viable state, may be suitable for direct ingestion by humans. A substantial number of human foods (including cheese, yogurt, beer, etc.) contain viable or killed-but-intact microbial cells, and there is no known pathogenicity associated with the F. multivorum cells isolated by Applied Food Biotechnology, Inc. They were isolated from a relatively cold artesian waterway, and since they are adapted to living in cold water, they cannot survive or reproduce well at temperatures inside the human body. […] When fed directly in the form of a cell paste to animals such as birds or fish, these cells appear to be well-suited as delivery vehicles for zeaxanthin.

[6] = di Mascio et al 1989; among known carotenoids; cited from earlier work

CC1=C(/C=C/C(C)=C/C=C/C(C)=C/C=C/C=C(C)/C=C/C=C(C)/C=C/C2=C(C)C(=O)CCC2(C)C)C(C)(C)CCC1=O [Canthaxanthin]
retinal toxicity [1]: has been shown to cause retinal maculopathy

CC1=C(/C=C/C(C)=C/C=C/C(C)=C/CO)C(C)(C)CCC1 [Retinol (Vit. A), Retinol]
benefit in the retina against macular degeneration [2]: very limited

CC1=C(/C=C/C(C)=C/C=C/C(C)=C/C=C/C=C(C)/C=C/C=C(C)/C=C/C2=C(C)C[C@@H](O)CC2(C)C)C(C)(C)C[C@H](O)C1 [Zeaxanthin, 3,3'-dihydroxy-β-β-carotene]
coloration of chickens ([3]; Flavobacter cells (ATCC 21081, 21588) with their zeaxanthin fed, U.S. Pat. No. 3,891,504): caused suitable coloration
coloring potency relative to lutein ([3]; per-weight basis, chicken skin and egg yolks): 2-3 times
effectiveness in imparting color to animal flesh or chicken yolks relative to lutein ([3]; per-weight basis): several times more effective
remaining at 4380 h [4]: 92%
absorption and tissue deposition of zeaxanthin [5]: absorbed into the bloodstream and deposited into various tissues at expected and appropriate tissue locations

Cc1c(C)c2c(c(C)c1O)CCC(C)(CCCC(C)CCCC(C)CCCC(C)C)O2 (stereo not drawn) [alpha-Tocopherol]
benefit in the retina against macular degeneration [2]: very limited

CC(C)=CCC/C(C)=C/C=C/C(C)=C/C=C/C(C)=C/C=C/C=C(C)/C=C/C=C(C)/C=C/C=C(\C)CCC=C(C)C [lycopene]
singlet oxygen quenching [6]: best singlet oxygen quencher of all known carotenoids

CC1=C(/C=C/C(C)=C/C=C/C(C)=C/C=C/C=C(C)/C=C/C=C(C)/C=C/C2=C(C)CCCC2(C)C)C(C)(C)CCC1 [β-Carotene, β-carotene]
benefit in the retina against macular degeneration [2]: very limited
